{
  "source": "patent US9255295B2",
  "about": "“Method for evaluating the sensitizing potential of a test compound” (IMMUNOSEARCH, priority 2010, dated 2016)",
  "key": {"[1]": {"conditions": "official classification: non-sensitizer, irritant, or sensitizing Extreme/Strong/Moderate/Weak; cited from earlier work"}, "[2]": {"tested_on": "ARE gene family (AKR1B10, AKR1C1, AKR1C2, CYP1B1, FTH1P, FTL, G6PD, GCLM, NQO2, SLC7A11, TXNRD1, UGT1A1, UGT1A9, YWHAZ, CD36, CYP1A1, GCLC, HMOX1, NQO1, PSME2 …)", "conditions": "human"}},
  "note": "Where two headings read alike, the source gives them in different places.",
  "data": [
    {"smiles": "Oc1ccc(O)cc1", "note": "[Hydroquinone]", "values": [
      {"measurement": "Class", "setting": "[1]", "value": "S"},
      {"measurement": "AHR expression compared to control", "setting": "[2]; 15 min, 0.1 %", "value": 0.8},
      {"measurement": "ARE >1.3 (NUMBER OF GENES)", "setting": "[2]; 15 min, 0.1 %", "value": 5},
      {"measurement": "GCLM expression compared to control", "setting": "[2]; 15 min, 0.1 %", "value": 0.7},
      {"measurement": "NQO2 expression compared to control", "setting": "[2]; 15 min, 0.1 %", "value": 0.9},
      {"measurement": "SLC7A11 expression compared to control", "setting": "[2]; 15 min, 0.1 %", "value": 1.3},
      {"measurement": "TOTAL ARE (NUMBER OF GENES)", "setting": "[2]; 15 min, 0.1 %", "value": 5},
      {"measurement": "UGT1A9 expression compared to control", "setting": "[2]; 15 min, 0.1 %", "value": 0.8},
      {"measurement": "AHR expression compared to control", "setting": "[2]; 15 min, 1 %", "value": 0.6},
      {"measurement": "ARE >1.3 (NUMBER OF GENES)", "setting": "[2]; 15 min, 1 %", "value": 9},
      {"measurement": "GCLM expression compared to control", "setting": "[2]; 15 min, 1 %", "value": 1.8},
      {"measurement": "NQO2 expression compared to control", "setting": "[2]; 15 min, 1 %", "value": 1.4},
      {"measurement": "SLC7A11 expression compared to control", "setting": "[2]; 15 min, 1 %", "value": 1.5},
      {"measurement": "TOTAL ARE (NUMBER OF GENES)", "setting": "[2]; 15 min, 1 %", "value": 9},
      {"measurement": "UGT1A9 expression compared to control", "setting": "[2]; 15 min, 1 %", "value": 1.5},
      {"measurement": "AHR expression compared to control", "setting": "[2]; 15 min, 10 %", "value": 0.6},
      {"measurement": "ARE >1.3 (NUMBER OF GENES)", "setting": "[2]; 15 min, 10 %", "value": 13},
      {"measurement": "GCLM expression compared to control", "setting": "[2]; 15 min, 10 %", "value": 2.0},
      {"measurement": "NQO2 expression compared to control", "setting": "[2]; 15 min, 10 %", "value": 1.5},
      {"measurement": "SLC7A11 expression compared to control", "setting": "[2]; 15 min, 10 %", "value": 1.6},
      {"measurement": "TOTAL ARE (NUMBER OF GENES)", "setting": "[2]; 15 min, 10 %", "value": 13},
      {"measurement": "UGT1A9 expression compared to control", "setting": "[2]; 15 min, 10 %", "value": 1.3},
      {"measurement": "ARE >1.3 (NUMBER OF GENES)", "setting": "[2]; 15 min, 50 %", "value": 15},
      {"measurement": "TOTAL ARE (NUMBER OF GENES)", "setting": "[2]; 15 min, 50 %", "value": 15},
      {"measurement": "AKR1B10 expression compared to control", "setting": "[2]; 6 h, 0.1 %", "value": 0.9},
      {"measurement": "AKR1C1 expression compared to control", "setting": "[2]; 6 h, 0.1 %", "value": 1.2},
      {"measurement": "AKR1C2 expression compared to control", "setting": "[2]; 6 h, 0.1 %", "value": 0.7},
      {"measurement": "CD36 expression compared to control", "setting": "[2]; 6 h, 0.1 %", "value": 0.7},
      {"measurement": "CYP1A1 expression compared to control", "setting": "[2]; 6 h, 0.1 %", "value": 8.0},
      {"measurement": "CYP1B1 expression compared to control", "setting": "[2]; 6 h, 0.1 %", "value": 1.8},
      {"measurement": "FTH1P expression compared to control", "setting": "[2]; 6 h, 0.1 %", "value": 1.2},
      {"measurement": "FTL expression compared to control", "setting": "[2]; 6 h, 0.1 %", "value": 1.5},
      {"measurement": "GCLC expression compared to control", "setting": "[2]; 6 h, 0.1 %", "value": 1.3},
      {"measurement": "HMOX1 expression compared to control", "setting": "[2]; 6 h, 0.1 %", "value": 1.1},
      {"measurement": "NQO1 expression compared to control", "setting": "[2]; 6 h, 0.1 %", "value": 1.2},
      {"measurement": "S100A8 expression compared to control", "setting": "[2]; 6 h, 0.1 %", "value": 1.1},
      {"measurement": "TXNRD1 expression compared to control", "setting": "[2]; 6 h, 0.1 %", "value": 2.3},
      {"measurement": "UGT1A1 expression compared to control", "setting": "[2]; 6 h, 0.1 %", "value": 1.7},
      {"measurement": "AKR1B10 expression compared to control", "setting": "[2]; 6 h, 1 %", "value": 1.0},
      {"measurement": "AKR1C1 expression compared to control", "setting": "[2]; 6 h, 1 %", "value": 2.0},
      {"measurement": "AKR1C2 expression compared to control", "setting": "[2]; 6 h, 1 %", "value": 1.3},
      {"measurement": "CD36 expression compared to control", "setting": "[2]; 6 h, 1 %", "value": 0.7},
      {"measurement": "CYP1A1 expression compared to control", "setting": "[2]; 6 h, 1 %", "value": 15.4},
      {"measurement": "CYP1B1 expression compared to control", "setting": "[2]; 6 h, 1 %", "value": 7.1},
      {"measurement": "FTH1P expression compared to control", "setting": "[2]; 6 h, 1 %", "value": 1.3},
      {"measurement": "FTL expression compared to control", "setting": "[2]; 6 h, 1 %", "value": 1.5},
      {"measurement": "GCLC expression compared to control", "setting": "[2]; 6 h, 1 %", "value": 1.3},
      {"measurement": "HMOX1 expression compared to control", "setting": "[2]; 6 h, 1 %", "value": 1.0},
      {"measurement": "NQO1 expression compared to control", "setting": "[2]; 6 h, 1 %", "value": 1.3},
      {"measurement": "S100A8 expression compared to control", "setting": "[2]; 6 h, 1 %", "value": 1.4},
      {"measurement": "TXNRD1 expression compared to control", "setting": "[2]; 6 h, 1 %", "value": 2.1},
      {"measurement": "UGT1A1 expression compared to control", "setting": "[2]; 6 h, 1 %", "value": 1.4},
      {"measurement": "AKR1B10 expression compared to control", "setting": "[2]; 6 h, 10 %", "value": 1.0},
      {"measurement": "AKR1C1 expression compared to control", "setting": "[2]; 6 h, 10 %", "value": 2.6},
      {"measurement": "AKR1C2 expression compared to control", "setting": "[2]; 6 h, 10 %", "value": 1.8},
      {"measurement": "CD36 expression compared to control", "setting": "[2]; 6 h, 10 %", "value": 0.7},
      {"measurement": "CYP1A1 expression compared to control", "setting": "[2]; 6 h, 10 %", "value": 33.2},
      {"measurement": "CYP1B1 expression compared to control", "setting": "[2]; 6 h, 10 %", "value": 17.1},
      {"measurement": "FTH1P expression compared to control", "setting": "[2]; 6 h, 10 %", "value": 1.4},
      {"measurement": "FTL expression compared to control", "setting": "[2]; 6 h, 10 %", "value": 1.9},
      {"measurement": "GCLC expression compared to control", "setting": "[2]; 6 h, 10 %", "value": 1.5},
      {"measurement": "HMOX1 expression compared to control", "setting": "[2]; 6 h, 10 %", "value": 1.2},
      {"measurement": "NQO1 expression compared to control", "setting": "[2]; 6 h, 10 %", "value": 1.5},
      {"measurement": "S100A8 expression compared to control", "setting": "[2]; 6 h, 10 %", "value": 1.4},
      {"measurement": "TXNRD1 expression compared to control", "setting": "[2]; 6 h, 10 %", "value": 2.6},
      {"measurement": "UGT1A1 expression compared to control", "setting": "[2]; 6 h, 10 %", "value": 1.5},
      {"measurement": "AHR expression compared to control", "setting": "[2]; 6 h, 50 %", "value": 0.9},
      {"measurement": "AKR1B10 expression compared to control", "setting": "[2]; 6 h, 50 %", "value": 1.1},
      {"measurement": "AKR1C1 expression compared to control", "setting": "[2]; 6 h, 50 %", "value": 3.5},
      {"measurement": "AKR1C2 expression compared to control", "setting": "[2]; 6 h, 50 %", "value": 3.7},
      {"measurement": "CD36 expression compared to control", "setting": "[2]; 6 h, 50 %", "value": 0.8},
      {"measurement": "CYP1A1 expression compared to control", "setting": "[2]; 6 h, 50 %", "value": 57.8},
      {"measurement": "CYP1B1 expression compared to control", "setting": "[2]; 6 h, 50 %", "value": 49.5},
      {"measurement": "FTH1P expression compared to control", "setting": "[2]; 6 h, 50 %", "value": 2.1},
      {"measurement": "FTL expression compared to control", "setting": "[2]; 6 h, 50 %", "value": 3.5},
      {"measurement": "GCLC expression compared to control", "setting": "[2]; 6 h, 50 %", "value": 2.4},
      {"measurement": "GCLM expression compared to control", "setting": "[2]; 6 h, 50 %", "value": 3.8},
      {"measurement": "HMOX1 expression compared to control", "setting": "[2]; 6 h, 50 %", "value": 3.5},
      {"measurement": "NQO1 expression compared to control", "setting": "[2]; 6 h, 50 %", "value": 2.8},
      {"measurement": "NQO2 expression compared to control", "setting": "[2]; 6 h, 50 %", "value": 2.0},
      {"measurement": "S100A8 expression compared to control", "setting": "[2]; 6 h, 50 %", "value": 1.4},
      {"measurement": "SLC7A11 expression compared to control", "setting": "[2]; 6 h, 50 %", "value": 5.4},
      {"measurement": "TXNRD1 expression compared to control", "setting": "[2]; 6 h, 50 %", "value": 7.9},
      {"measurement": "UGT1A1 expression compared to control", "setting": "[2]; 6 h, 50 %", "value": 1.9},
      {"measurement": "UGT1A9 expression compared to control", "setting": "[2]; 6 h, 50 %", "value": 1.7}
    ]}
  ]
}
